Data from patent US11602514B2, “Medicament having anti-inflammatory bowel disease function, and preparation method therefor and application thereof” (SUZHOU PHARMAVAN CO., LTD, priority 2018, dated 2023).
“Also recorded” adds a separate entry of the source.

Tests used:
[1] = system: COX2 protein expressed by mouse macrophages RAW264.7; test: COX2 protein expression in LPS-induced RAW264.7 macrophages (blot); assay type: cell-based; conditions: FIG. 8
Description: (§1) Effects of myricanol derivatives on the expression of inflammatory factors such as IL-6, TNF-α, PEG2 secreted by a mouse macrophage cell strain RAW 264.7 induced by bacterial lipopolysaccharide (hereinafter referred to as LPS) stimulus: A pre-prepared cell suspension was inoculated in a 96-well plate at 15000 cells/well and 100 μl/well and cultured overnight in an incubator with 5% CO2 at 37° C. At 80% cell confluence, the original culture medium was discarded, and each well was added with 100 μl of prepared drug solution to be tested with a different concentration, cultured for 1 h, and then added with a LPS solution, where the final concentration of LPS in the culture system was 100 ng/mL. Each concentration was set with 3 parallel wells, and a cell control group (no drug and no solvent) and a blank medium control group (no cells, a well for zero adjustment) were set. They were cultured for another 24 h. Cell culture supernatants were aspirated, and an R&D ELISA detection kit (M6000B; MTA00B; VAL601) was used for detecting the expression of the inflammatory factors such as IL-6, TNF-α, and PEG2 in each group. Cell proteins were collected, and a […] method was used for detecting COX-2 protein expression in each group.

[2] = system: IL-6 secreted by mouse macrophages RAW264.7 induced by LPS; test: IL-6 secreted by LPS-induced RAW264.7 macrophages (ELISA); assay type: cell-based; conditions: LPS 100 ng/mL, 24 h; FIG. 5
Description: as §1

[3] = system: PGE2 secreted by mouse macrophages RAW264.7 induced by LPS; test: PGE2 secreted by LPS-induced RAW264.7 macrophages (ELISA); assay type: cell-based; conditions: for inhibition of PGE2 secreted by RAW264.7 induced by LPS: LPS 100 ng/mL, 24 h, FIGS. 7 and 9
Description: as §1

[4] = system: mouse macrophages RAW264.7; test: effect on proliferation activity of mouse macrophages RAW264.7; assay type: cell-based; conditions: n=3, FIG. 4
[5] = system: SD rats; test: acute toxicity, single oral dose; assay type: in vivo; conditions: single intragastric administration, 14 days observation
From the text: Trial method: 30 SD rats, half male and half female, were used. The average weight was 160-200 g for female rats and 180-220 g for male rats when grouped. An individual weight should be within ±20% of the average weight. Before the test, animals needed to accommodate to the environment for at least 5 days, and healthy rats (female rats should be not pregnant) were selected as test animals. Matter detected during the accommodation period mainly was: whether the rats were consistent with quality indexes required in the order; detection of general conditions; and whether the weight was within the weight range required by the test. Unqualified abnormal animals were excluded from the test. A single dosage was orally administered to rats at a low, medium, or high dose. […] A control group was set with the oral administration of the same volume of solvent.
The rats were observed about 0-2 h and 4-6 h after each administration. If a toxicity symptom occurs, the rats may be observed more times. (2) Gross anatomical observation: on the 14th day of the test, all surviving rats in each group were dissected and observed, and for administration sites and gross dissection, abnormal organs and tissues which were observed and found to be potentially related to test samples were photographed and recorded. (3) Disposal of dying animals: status of rats and observation time were recorded, and their weights were measured. (4) Disposal of dead animals: the time of death or when a rat was found dead were recorded. The rat was measured for weight before quickly dissected for gross observation and speculated for a cause of death.

Compound	inhibition of protein expression of IBD-related COX2 [1]	inhibition of LPS-induced IL-6 secretion of RAW264.7 cells [2]	inhibition of PGE2 secreted by RAW264.7 induced by LPS [3]	effect on proliferation activity of mouse macrophages RAW264.7 ([4]; 30 μM)	also measured
5-n-propoxy myricanol [compound B]	can inhibit	very strong effects of inhibiting	significant effect of inhibiting PGE2; also recorded: strong ability to inhibit	no significant effects	
COc1c2cc(c(OC(C)=O)c1OC)CCCCC(O)CCc1ccc(OC(C)=O)c-2c1 (centres unmarked) [compound A, 5,17-diacetoxy myricanol]	can inhibit	very strong effects of inhibiting	significant effect of inhibiting PGE2; also recorded: strong ability to inhibit		Test Endpoint (toxic side effects) ([5]; 100 mg/kg): No obvious toxic; Test Endpoint (toxic side effects) ([5]; 300 mg/kg): No obvious toxic; Test Endpoint (toxic side effects) ([5]; 1000 mg/kg): No obvious toxic; effect on proliferation activity of mouse macrophages RAW264.7 ([4]; 40 μM): no significant effects
COc1c2cc(c(OCc3ccccc3)c1OC)CCCCC(O)CCc1ccc(O)c-2c1 (centres unmarked) [compound C, 5-benzyloxy myricanol]				no significant effects	
C=CCOc1ccc2cc1-c1cc(c(OCC=C)c(OC)c1OC)CCCCC(O)CC2 (centres unmarked) [compound D, 5,17-diallyloxy myricanol]				no significant effects	
C=CCOc1c2cc(c(OC)c1OC)-c1cc(ccc1O)CCC(O)CCCC2 (centres unmarked) [compound E, 5-allyloxy myricanol]				no significant effects	
C=CCOc1ccc2cc1-c1cc(c(OCC=C)c(OC)c1OC)CCCCC(=O)CC2 [compound F, 5,17-allyloxy myricanone]					effect on proliferation activity of mouse macrophages RAW264.7 ([4]; 80 μM): no significant effects
COc1c2cc(c(OC(C)=O)c1OC)CCCCC(O)CCc1ccc(O)c-2c1 (centres unmarked) [compound G, 5-acetoxy myricanol]	can inhibit	very strong effects of inhibiting	significant effect of inhibiting PGE2; also recorded: strong ability to inhibit		Test Endpoint (toxic side effects) ([5]; 100 mg/kg): No obvious toxic; Test Endpoint (toxic side effects) ([5]; 300 mg/kg): No obvious toxic; Test Endpoint (toxic side effects) ([5]; 1000 mg/kg): No obvious toxic; COX2 protein expression inhibition compared with myricanol [1]: better inhabitation effects than myricanol; effect on proliferation activity of mouse macrophages RAW264.7 ([4]; 40 μM): no significant effects
COc1c2cc(c(O)c1OC)CCCC[C@@H](O)CCc1ccc(O)c-2c1 [myricanol, reference compound]	can inhibit		strong ability to inhibit		PGE2 ([3]; LPS + 20 μM, LPS alone 1154.90 ± 84.20, control −407.37 ± 57.67): 904.98 ± 18.02 pg/mL
